Measured values as given in BindingDB's records for doi:10.7270/Q2BC3WZZ (Pcmd, 2008).

Biological target: T1, Coagulation factor XII (Homo sapiens, UniProt P00748)
T1 sequence (P00748 whole entry): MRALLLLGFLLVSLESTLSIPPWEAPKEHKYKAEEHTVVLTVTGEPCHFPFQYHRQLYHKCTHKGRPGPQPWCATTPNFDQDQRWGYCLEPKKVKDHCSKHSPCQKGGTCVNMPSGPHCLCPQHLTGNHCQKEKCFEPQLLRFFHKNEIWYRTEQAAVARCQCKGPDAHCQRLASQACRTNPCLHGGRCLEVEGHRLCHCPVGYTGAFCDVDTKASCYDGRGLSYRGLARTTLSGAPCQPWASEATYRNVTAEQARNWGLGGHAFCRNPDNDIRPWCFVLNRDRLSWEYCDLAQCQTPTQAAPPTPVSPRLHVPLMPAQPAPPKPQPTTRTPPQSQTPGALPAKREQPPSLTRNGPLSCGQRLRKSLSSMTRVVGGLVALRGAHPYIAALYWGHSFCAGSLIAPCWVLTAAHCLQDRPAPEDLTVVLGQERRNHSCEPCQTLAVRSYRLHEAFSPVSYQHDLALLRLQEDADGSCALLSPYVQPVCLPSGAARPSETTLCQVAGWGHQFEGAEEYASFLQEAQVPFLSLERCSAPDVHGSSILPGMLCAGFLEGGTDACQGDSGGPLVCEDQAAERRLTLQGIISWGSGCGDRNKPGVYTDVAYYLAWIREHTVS
Test: FXIIa inhibition potency, concentration-response curve, biochemical assay (AID 716)

IC50 | SMILES
> 50 µM | CC(C)C1c2c(-c3cccs3)n[nH]c2OC(=N)C1C#N (configuration not stated) [SMR000014022]
> 50 µM | C=CCOC(=O)C1=C(C)N=C(C)C(C(=O)OCC=C)C1c1ccc(O)cc1 (configuration not stated) [SMR000107649]
